According to US20210177862A1, “METHOD FOR TREATING NEUROCOGNITIVE DYSFUNCTION” (Tonix Pharma Holdings Limited, priority 2008, published 2021):

Key:
pulmonary sarcoidosis = assay type: in vivo, human; settings: prednisone tapered from 40 mg to 25 mg a day
Excerpt: (§1) Patient was diagnosed with a medical condition known as pulmonary sarcoidosis in which immune cells (lymphocytes and macrophages) are abnormally activated and accumulate in the lung, progressively destroying the architecture and functional capacity of lung tissue. Treatment is necessary to prevent progression of the disease and loss of more pulmonary functional capacity. Standard treatment is with systemic corticosteroids due to the capacity of corticosteroids for suppressing immune function. Patient was started on prednisone 40 mg by mouth each morning, with a plan to taper the dose by 5 mg every two weeks until at 25 mg a day. After three months the level of response to corticosteroids would be assessed by repeat pulmonary function tests and chest x-ray. If the disease process was responsive to corticosteroids, the treatment would be continued to finish a full year on about 25 mg a day.
The memory disturbance was profound and sharply contrasted with patient's normal memory function. The “foggy” feeling was present all day long, and was similar to the feeling of having taken a sedating antihistamine like diphenhydramine (Benadryl). Patient found they could only concentrate with much effort, with rapidly developing mental fatigue preventing sustained efforts. […]

[1] = tested on: corticosteroid-induced cognitive impairment; assay: Case report (Example 1): tianeptine given to a patient with cognitive side effects from prednisone therapy; assay type: in vivo, human
Excerpt: as §1
The memory disturbance was profound and sharply contrasted with patient's normal memory function. The “foggy” feeling was present all day long, and was similar to the feeling of having taken a sedating antihistamine like diphenhydramine (Benadryl). Patient found they could only concentrate with much effort, with rapidly developing mental fatigue preventing sustained efforts. Examples of memory impairment resulting from the prednisone were much like some of the memory disturbance seen in Alzheimer's dementia in which there is impairment in the process of consolidation of short term memories into long term memories, a process known to depend on intact hippocampal function.
Patient began tianeptine (Stablon) at 12.5 mg, one pill in the morning. Four days later, patient increased the dose to 12.5 mg twice a day, finally, two days after the prior increase, patient increased the dose to 25 mg each morning and 12.5 mg each evening. In the first several days taking tianeptine, patient noted the “foggy” feeling had gone away.
Although beginning tianeptine correlated with the rapid improvement in cognitive function, it was uncertain whether the tianeptine was responsible for the improvement.
There was the alternate possibility that patient was simply adjusting to the corticosteroids, with reduction in the cognitive side effects manifesting over the first several weeks after beginning corticosteroids. Nonetheless, patient continued to take the tianeptine. Also, it seemed possible that prednisone at 40 mg a day had been producing worse side effects than the lower doses of 35 mg, 30 mg, and 25 mg a day patient had tapered down to after starting the tianeptine.
Patient stopped tianeptine treatment two months later, tapering the dose over three days. Within about 2-3 days after the final dose of tianeptine, patient experienced the gradual emergence of the same cognitive side effects of the corticosteroids that patient had been experiencing in before initial tianeptine treatment including poor memory, extreme difficulty concentrating and sustaining mental effort, and the general “foggy” feeling once again pervading. This continued up for two weeks when patient restarted tianeptine treatment. […] Patient has continued on tianeptine 25 mg each morning and 12.5 mg each evening since then.

[2] = patient on prednisone, first several days taking tianeptine

| Structure (SMILES) | follow-up pulmonary function tests (pulmonary sarcoidosis) | time frame of effect after initiation of treatment ([1]; mitigation of corticosteroid cognitive side effects) [h] | effect of tianeptine in mitigating the side effects of the corticosteroids ([1]; off/on tianeptine episode, 25 mg each morning and 12.5 mg each evening) | ability to concentrate [1, 2] | episodic memory [1, 2] | "foggy" feeling ([1]; patient on prednisone, first several days taking tianeptine 12.5 mg up to 25 mg morning + 12.5 mg evening, oral) | time after restarting tianeptine to definite improvement ([1]; restart after two weeks off tianeptine, on prednisone) [h] | cognitive function after restarting tianeptine ([1]; three days after restart, on prednisone) | time after final dose of tianeptine to gradual emergence of the same cognitive side effects of the corticosteroids ([1]; tianeptine stopped (tapered over three days), prednisone 25 mg a day continued) [days] |
| --- | --- | --- | --- | --- | --- | --- | --- | --- | --- |
| C[C@]12C=CC(=O)C=C1CC[C@@H]1[C@@H]2C(=O)C[C@@]2(C)[C@H]1CC[C@]2(O)C(=O)CO [prednisone] | indicated improvement | – | – | – | – | – | – | – | – |
| CN1c2ccccc2C(NCCCCCCC(=O)O)c2ccc(Cl)cc2S1(=O)=O (stereo not drawn) [tianeptine, 7-[(3-chloro-6,11-dihydro-6-methyl-dibenzo[c,f][1,2]thiazepin-11-yl)amino] heptanoic acid S,S-dioxide] | – | 24 to 72 | large effect | appeared to normalize | significantly improved | had gone away | ≤ 24 | pretty much returned to normal baseline | 2 to 3 |
